# Experimental data reported in patent US11793824B2, “Administration of nicotinamide mononucleotide in the treatment of disease” (Washington University, priority 2013, dated 2023).
# Entries after “also recorded” stand apart in the source; their conditions may differ.
# Experiments:
# [1] = Bone mineral density by dual-energy X-ray absorptiometry (DXA); assay type: in vivo, mouse; conditions: 12-month time point, 17-18 month old mice
# Experimental: (§1) A 12 month-long NMN administration study using wild-type mice under a regular chow-fed condition was conducted. NMN was administered through drinking water, and two doses of NMN, 100 and 300 mg/kg body weight/day, were tested. […] To assess beneficial and possible adverse effects of NMN, a variety of physiological parameters were periodically monitored, including body weight, body temperature, food and water intake, fed and fasted blood glucose levels, fed and fasted plasma lipid panels, and glucose and insulin tolerance, in NMN-administered and control mice. Blood chemistry, blood cell counts, urine strip test, and other physiological tests including physical activity test were also checked.
# The inventors measured the bone mineral density (BMD) of control and NMN-treated mice at the 12-month time point of a 12 month long NMN administration experiment by dual-energy X-ray absorptiometry (DXA). At this time point, mice were 17-18 month old.
# [2] = system: NSPCs; test: NSPC pool in the dentate gyrus after long-term NMN in drinking water; assay type: in vivo, mouse
# Experimental: All tissue sections were and cells incubated in blocking/permeabilization solution containing 10% normal goat serum, 1% BSA, and 0.3% Triton-X in PBS for 45 to 60 min prior to 24 or 48 h of incubation with primary antibodies in 5% normal goat serum and 0.1% Triton-X in PBS at 4° C. at the concentrations listed below. […], Alexa488, or Cy3 conjugated-secondary antibodies diluted in 2% normal goat serum, 1% BSA, and 0.1% Triton-X in PBS were added for 2 h at room temperature. Nuclei were stained with 4,6-diamidino-2-phenylindole (Sigma) for 10 min at room temperature.
# Cells were harvested by fixation with 4% paraformaldehyde in PBS (15 min). Mice were anesthetized by i.p. injection of ketamine and xylazine, and perfused transcardially through left ventricle with cold 0.1 M phosphate buffer at pH 7.4 followed by a phosphate-buffered solution of 4% paraformaldehyde (PFA). Brains were postfixed with 4% PFA overnight and placed into 15% sucrose followed by 30% sucrose, frozen, and stored at −80° C. until use. Coronal sections (30 μm) were made by cryostat in a 1 in 8 series and stored at −30° C. in cryoprotectant until use. To remove any endogenous peroxidase activity, all sections were incubated with 3% H2O2 for 10 min. […]
# For tissue sections, high-magnification (20×, 0.8DICII or 40× oil 1.3DICII) microscopic imaging was performed using a Zeiss Axioimage.Z1. […] Quantification was performed blinded to genotype on 3-8 tissue sections per animal. Cell densities were estimated by the number of immunoreactive cells divided by the area of the structure, measured with ImageJ. […] Quantification was performed blinded to genotype on 2 to 3 fields of view per sample and treatment, from 3 to 9 independent samples.
# The inventors hypothesized that systemic administration of NMN may be able to correct age-associated defects in NSPC functionality. […] Quantification of Ki67+ (H) and Dcx+ (I) cells in the DG per unit area of the DG (n=5). […]
# [3] = Age-associated body weight increase, 12 month-long NMN administration; assay type: in vivo, mouse; conditions: 12 months
# Experimental: as §1
# In these experiments, NMN was administered to mice at a dosage rate of 100 mg/kg per day or 300 mg/kg per day. […] The results were analyzed with two-way RANOVA and one-way RANOVA with the unweighted linear term. All values are presented as mean±SEM (n=15, 14, and 14 for control, 100, and 300 mg/kg NMN-administered groups).
# [4] = Stability of NMN in drinking water; assay type: physicochemical
# [5] = Age-associated increases in blood lipid levels; assay type: in vivo, mouse
# Experimental: as §1
# Blood levels of cholesterol, triglycerides, and free fatty acids are shown over 12 months in the control and the 100 and 300 mg/kg NMN-administered cohorts in FIG. 7. The results were analyzed with two-way RANOVA and one-way RANOVA. All values are presented as mean±SEM (n=25 for each group).
# Without being limited by theory, since NMN has an effect of suppressing age-associated body weight increase, it was hypothesized that NMN's effect on blood lipid levels could be due to the reduction in body weight. To address this possibility, lipid levels were compared among individual mice whose average body weights were matched through control and experimental cohorts. Body weight-matched blood levels of cholesterol, triglycerides, and free fatty acids are shown over 12 months in the control and the 100 and 300 mg/kg NMN-administered cohorts in FIG. 8. The results were analyzed with two-way RANOVA and one-way RANOVA. All values are presented as mean±SEM (n=10-15 for each group). […] All values are presented as mean±SEM (n=10-15 for each group). These findings indicate that NMN has the effect of suppressing the age-associated increase in blood FFA levels, independent of the reduction in body weight. Without being limited by theory, the effect of NMN on blood cholesterol levels may be secondary to the effect of suppressing age-associated body weight increase.
# [6] = NMN in drinking water from 6 to 18 months of age
# [7] = 100 and 300 mg/kg groups vs control
compound,measurement,setting,value
"NC(=O)c1ccc[n+]([C@@H]2O[C@H](COP(=O)([O-])O)[C@@H](O)[C@H]2O)c1 [NMN, nicotinamide mononucleotide]",increase in the BMD,[1]; 100 mg/kg group,2.8%
same,increase in the BMD,[1]; 300 mg/kg group,5.9%
same,Type 1 (radial Nestin+) NSPC population with age,[2]; 300 mg/kg body weight in drinking water from 6 to 18 months of age,improved maintenance; also recorded: able to maintain the NSPC pool
same,population of newborn neurons (Dcx+) in the DG,[2]; [6],trended to increase
same,population of proliferating cells (Ki67+) in the DG,[2]; [6],remained similar to controls
same,average percent body weight gain suppression normalized to control mice,[3]; 100 mg/kg group,12%
same,average percent body weight reduction normalized to control mice,[3]; 100 mg/kg group,4%
same,average percent body weight gain suppression normalized to control mice,[3]; 300 mg/kg group,30%
same,average percent body weight reduction normalized to control mice,[3]; 300 mg/kg group,9%
same,stability of NMN in drinking water,[4]; in solution,stable in solution
same,degradation of NMN in drinking water,[4]; room temperature,No significant degradation
same,increase of FFAs over time after body weight match,[5]; 100 mg/kg group,showed significant increases over time
same,increase of blood FFAs over time,"[5]; 100 mg/kg group, first 6 months",statistically significant increases
same,increase of FFAs over time after body weight match,[5]; 300 mg/kg group,did not show any statistically significant increases over time
same,increase of blood FFAs over time,[5]; 300 mg/kg group,did not show any statistically significant increase over time
same,age-associated increases in blood levels of FFAs,"[5]; 300 mg/kg, particularly at the 6-month time point",suppressed age-associated increases in blood levels of FFAs
same,FFA levels after matching body weight,[5]; [7],still lower
same,blood cholesterol levels after matching body weight,[5]; [7],very similar through control and experimental groups
same,age-associated increases in blood cholesterol and free fatty acids,"[5]; 100 and 300 mg/kg groups, 12 months",tended to be suppressed
